Test system: Echinochloa crusgalli
Assay: Pre-emergence treatment, herbicidal efficacy on barnyardgrass
Format: in vivo
Details: 62.5 g/ha, 4 weeks after spraying, scale 0 to 10
Experimental: (§1) A rectangular plastic pot having a surface area of 300 cm^2 was filled with sandy loam soil and mixed bed soil which were mixed at a ratio of 1:1, and then, barnyardrass (Echinochloa crusgalli), large crabgrass (Digitaria sanguinalis), blackgrass (Alopecurus myosuroides), and annual bluegrass (Poa annua), which are grass weeds, were seeded thereto. In a pot that was prepared as described above, seeds of corn, soybean, cotton, wheat, and rice were seeded. The pots were irrigated, and one day after, chemicals were sprayed thereto. The spraying was performed by using a track sprayer (R&D Sprayer, USA) equipped with a Teejet 8002 (Spraying Systems Co., USA) nozzle, and a spraying amount was adjusted at 300 L/ha. A spraying solution was prepared by dissolving test materials or references in acetone and adding the same amount of 0.2%(v/v) tween 20 aqueous solution thereto. Application rates were 500, 250, 125, and 62.5 g/ha. The pots were placed in a greenhouse in which during day, the temperature was maintained at a temperature of 25 to 30° C., and during night, the temperature was maintained at a temperature of 15 to 25° C., and the pots were periodically irrigated. Four weeks after the spraying the test materials or References, effects and phytotoxicity of the respective weeds and crops were evaluated in a scale of 0 to 10 (0: no effects, 10: complete death), and results thereof are shown in Table 4 below.

Row | Structure (SMILES) | Herbicidal efficacy, Echinochloa crusgalli
1 | Cc1ccccc1C1=NOC(C)(COCc2c(F)cccc2Cl)C1 (stereo not drawn) [Reference E] | 2

Same assay, conditions: 125 g/ha, 4 weeks after spraying, scale 0 to 10

Row | Structure (SMILES) | Herbicidal efficacy, Echinochloa crusgalli
2 | Cc1ccccc1C1=NOC(C)(COCc2c(F)cccc2Cl)C1 (stereo not drawn) [Reference E] | 5

Same assay, conditions: 250 g/ha, 4 weeks after spraying, scale 0 to 10

Row | Structure (SMILES) | Herbicidal efficacy, Echinochloa crusgalli
3 | Cc1ccccc1C1=NOC(C)(COCc2c(F)cccc2Cl)C1 (stereo not drawn) [Reference E] | 8

Same assay, conditions: 500 g/ha, 4 weeks after spraying, scale 0 to 10 (0: no effects, 10: complete death)

Row | Structure (SMILES) | Herbicidal efficacy, Echinochloa crusgalli
4 | Cc1ccccc1C1=NOC(C)(COCc2c(F)cccc2Cl)C1 (stereo not drawn) [Reference E] | 10

Test system: Soybean
Assay: Pre-emergence treatment, phytotoxicity to soybean
Format: in vivo
Details: 500 g/ha, 4 weeks after spraying, scale 0 to 10 (0: no effects, 10: complete death)
Experimental: as §1

Row | Structure (SMILES) | Phytotoxicity, Soybean
5 | Cc1ccccc1C1=NOC(C)(COCc2c(F)cccc2Cl)C1 (stereo not drawn) [Reference E] | 0

Test system: Cotton
Assay: Post-emergence treatment, phytotoxicity to cotton
Format: in vivo
Details: post-emergence (about 3 leaf stage), 1,000 g/ha, 4 weeks after spraying, scale 0 to 10 (0: no effects, 10: complete death)
Experimental: as §1
(§2) Pots containing crops and weeds were prepared in the same manner as in Example 7, and then, in the second week in which crops and weeds entered into about 3 leaf stage, the test materials and the references were sprayed thereto in the same manner as described above. The rates were 1,000, 500, 250, and 125 g/ha. Four weeks after the spraying of the test materials or the references, herbicidal efficacy and phytotoxicity to the respective weeds and crops were evaluated in a scale of 0 to 10 (0: no effects, 10: complete death).

Row | Structure (SMILES) | Phytotoxicity, Cotton
6 | Cc1ccccc1C1=NOC(C)(COCc2c(F)cccc2Cl)C1 (stereo not drawn) [Reference E] | 3

Test system: Corn
Assay: Pre-emergence treatment, phytotoxicity to corn
Format: in vivo
Details: 500 g/ha, 4 weeks after spraying, scale 0 to 10 (0: no effects, 10: complete death)
Experimental: as §1

Row | Structure (SMILES) | Phytotoxicity, Corn
7 | Cc1ccccc1C1=NOC(C)(COCc2c(F)cccc2Cl)C1 (stereo not drawn) [Reference E] | 0

Test system: Soybean
Assay: Post-emergence treatment, phytotoxicity to soybean
Format: in vivo
Details: post-emergence (about 3 leaf stage), 1,000 g/ha, 4 weeks after spraying, scale 0 to 10 (0: no effects, 10: complete death)
Experimental: as §1, §2

Row | Structure (SMILES) | Phytotoxicity, Soybean
8 | Cc1ccccc1C1=NOC(C)(COCc2c(F)cccc2Cl)C1 (stereo not drawn) [Reference E] | 1

Test system: Wheat
Assay: Pre-emergence treatment, phytotoxicity to wheat
Format: in vivo
Details: 500 g/ha, 4 weeks after spraying, scale 0 to 10 (0: no effects, 10: complete death)
Experimental: as §1

Row | Structure (SMILES) | Phytotoxicity, Wheat
9 | Cc1ccccc1C1=NOC(C)(COCc2c(F)cccc2Cl)C1 (stereo not drawn) [Reference E] | 0

Test system: Echinochloa crusgalli
Assay: Post-emergence treatment, herbicidal efficacy on barnyardgrass
Format: in vivo
Details: post-emergence, 125 g/ha, 4 weeks after spraying, scale 0 to 10
Experimental: as §1, §2

Row | Structure (SMILES) | Herbicidal efficacy, Echinochloa crusgalli
10 | Cc1ccccc1C1=NOC(C)(COCc2c(F)cccc2Cl)C1 (stereo not drawn) [Reference E] | 0

Same assay, conditions: post-emergence, 250 g/ha, 4 weeks after spraying, scale 0 to 10

Row | Structure (SMILES) | Herbicidal efficacy, Echinochloa crusgalli
11 | Cc1ccccc1C1=NOC(C)(COCc2c(F)cccc2Cl)C1 (stereo not drawn) [Reference E] | 2

Same assay, conditions: post-emergence, 500 g/ha, 4 weeks after spraying, scale 0 to 10

Row | Structure (SMILES) | Herbicidal efficacy, Echinochloa crusgalli
12 | Cc1ccccc1C1=NOC(C)(COCc2c(F)cccc2Cl)C1 (stereo not drawn) [Reference E] | 5

Same assay, conditions: post-emergence, 1,000 g/ha, 4 weeks after spraying, scale 0 to 10

Row | Structure (SMILES) | Herbicidal efficacy, Echinochloa crusgalli
13 | Cc1ccccc1C1=NOC(C)(COCc2c(F)cccc2Cl)C1 (stereo not drawn) [Reference E] | 6

Test system: Digitaria sanguinalis
Assay: Pre-emergence treatment, herbicidal efficacy on large crabgrass
Format: in vivo
Details: 62.5 g/ha, 4 weeks after spraying, scale 0 to 10
Experimental: as §1

Row | Structure (SMILES) | Herbicidal efficacy, Digitaria sanguinalis
14 | Cc1ccccc1C1=NOC(C)(COCc2c(F)cccc2Cl)C1 (stereo not drawn) [Reference E] | 0

Same assay, conditions: 125 g/ha, 4 weeks after spraying, scale 0 to 10

Row | Structure (SMILES) | Herbicidal efficacy, Digitaria sanguinalis
15 | Cc1ccccc1C1=NOC(C)(COCc2c(F)cccc2Cl)C1 (stereo not drawn) [Reference E] | 5

Same assay, conditions: 250 g/ha, 4 weeks after spraying, scale 0 to 10

Row | Structure (SMILES) | Herbicidal efficacy, Digitaria sanguinalis
16 | Cc1ccccc1C1=NOC(C)(COCc2c(F)cccc2Cl)C1 (stereo not drawn) [Reference E] | 9

Same assay, conditions: 500 g/ha, 4 weeks after spraying, scale 0 to 10

Row | Structure (SMILES) | Herbicidal efficacy, Digitaria sanguinalis
17 | Cc1ccccc1C1=NOC(C)(COCc2c(F)cccc2Cl)C1 (stereo not drawn) [Reference E] | 10

Test system: Poa annua
Assay: Post-emergence treatment, herbicidal efficacy on annual bluegrass
Format: in vivo
Details: post-emergence, 125 g/ha, 4 weeks after spraying, scale 0 to 10
Experimental: as §1, §2

Row | Structure (SMILES) | Herbicidal efficacy, Poa annua
18 | Cc1ccccc1C1=NOC(C)(COCc2c(F)cccc2Cl)C1 (stereo not drawn) [Reference E] | 0

Same assay, conditions: post-emergence, 250 g/ha, 4 weeks after spraying, scale 0 to 10

Row | Structure (SMILES) | Herbicidal efficacy, Poa annua
19 | Cc1ccccc1C1=NOC(C)(COCc2c(F)cccc2Cl)C1 (stereo not drawn) [Reference E] | 2

Same assay, conditions: post-emergence, 500 g/ha, 4 weeks after spraying, scale 0 to 10

Row | Structure (SMILES) | Herbicidal efficacy, Poa annua
20 | Cc1ccccc1C1=NOC(C)(COCc2c(F)cccc2Cl)C1 (stereo not drawn) [Reference E] | 6

Same assay, conditions: post-emergence, 1,000 g/ha, 4 weeks after spraying, scale 0 to 10

Row | Structure (SMILES) | Herbicidal efficacy, Poa annua
21 | Cc1ccccc1C1=NOC(C)(COCc2c(F)cccc2Cl)C1 (stereo not drawn) [Reference E] | 7

Test system: Digitaria sanguinalis
Assay: Post-emergence treatment, herbicidal efficacy on large crabgrass
Format: in vivo
Details: post-emergence, 125 g/ha, 4 weeks after spraying, scale 0 to 10
Experimental: as §1, §2

Row | Structure (SMILES) | Herbicidal efficacy, Digitaria sanguinalis
22 | Cc1ccccc1C1=NOC(C)(COCc2c(F)cccc2Cl)C1 (stereo not drawn) [Reference E] | 0

Same assay, conditions: post-emergence, 250 g/ha, 4 weeks after spraying, scale 0 to 10

Row | Structure (SMILES) | Herbicidal efficacy, Digitaria sanguinalis
23 | Cc1ccccc1C1=NOC(C)(COCc2c(F)cccc2Cl)C1 (stereo not drawn) [Reference E] | 1

Same assay, conditions: post-emergence, 500 g/ha, 4 weeks after spraying, scale 0 to 10

Row | Structure (SMILES) | Herbicidal efficacy, Digitaria sanguinalis
24 | Cc1ccccc1C1=NOC(C)(COCc2c(F)cccc2Cl)C1 (stereo not drawn) [Reference E] | 6

Same assay, conditions: post-emergence, 1,000 g/ha, 4 weeks after spraying, scale 0 to 10

Row | Structure (SMILES) | Herbicidal efficacy, Digitaria sanguinalis
25 | Cc1ccccc1C1=NOC(C)(COCc2c(F)cccc2Cl)C1 (stereo not drawn) [Reference E] | 7

Test system: Cotton
Assay: Pre-emergence treatment, phytotoxicity to cotton
Format: in vivo
Details: 500 g/ha, 4 weeks after spraying, scale 0 to 10 (0: no effects, 10: complete death)
Experimental: as §1

Row | Structure (SMILES) | Phytotoxicity, Cotton
26 | Cc1ccccc1C1=NOC(C)(COCc2c(F)cccc2Cl)C1 (stereo not drawn) [Reference E] | 0

Test system: Alopecurus myosuroides
Assay: Post-emergence treatment, herbicidal efficacy on blackgrass
Format: in vivo
Details: post-emergence, 125 g/ha, 4 weeks after spraying, scale 0 to 10
Experimental: as §1, §2

Row | Structure (SMILES) | Herbicidal efficacy, Alopecurus myosuroides
27 | Cc1ccccc1C1=NOC(C)(COCc2c(F)cccc2Cl)C1 (stereo not drawn) [Reference E] | 0

Same assay, conditions: post-emergence, 250 g/ha, 4 weeks after spraying, scale 0 to 10

Row | Structure (SMILES) | Herbicidal efficacy, Alopecurus myosuroides
28 | Cc1ccccc1C1=NOC(C)(COCc2c(F)cccc2Cl)C1 (stereo not drawn) [Reference E] | 0

Same assay, conditions: post-emergence, 500 g/ha, 4 weeks after spraying, scale 0 to 10

Row | Structure (SMILES) | Herbicidal efficacy, Alopecurus myosuroides
29 | Cc1ccccc1C1=NOC(C)(COCc2c(F)cccc2Cl)C1 (stereo not drawn) [Reference E] | 2

Same assay, conditions: post-emergence, 1,000 g/ha, 4 weeks after spraying, scale 0 to 10

Row | Structure (SMILES) | Herbicidal efficacy, Alopecurus myosuroides
30 | Cc1ccccc1C1=NOC(C)(COCc2c(F)cccc2Cl)C1 (stereo not drawn) [Reference E] | 4

Test system: Corn
Assay: Post-emergence treatment, phytotoxicity to corn
Format: in vivo
Details: post-emergence (about 3 leaf stage), 1,000 g/ha, 4 weeks after spraying, scale 0 to 10 (0: no effects, 10: complete death)
Experimental: as §1, §2

Row | Structure (SMILES) | Phytotoxicity, Corn
31 | Cc1ccccc1C1=NOC(C)(COCc2c(F)cccc2Cl)C1 (stereo not drawn) [Reference E] | 3

Test system: Rice
Assay: Pre-emergence treatment, phytotoxicity to rice
Format: in vivo
Details: 500 g/ha, 4 weeks after spraying, scale 0 to 10 (0: no effects, 10: complete death)
Experimental: as §1

Row | Structure (SMILES) | Phytotoxicity, Rice
32 | Cc1ccccc1C1=NOC(C)(COCc2c(F)cccc2Cl)C1 (stereo not drawn) [Reference E] | 0

Test system: Alopecurus myosuroides
Assay: Pre-emergence treatment, herbicidal efficacy on blackgrass
Format: in vivo
Details: 62.5 g/ha, 4 weeks after spraying, scale 0 to 10
Experimental: as §1

Row | Structure (SMILES) | Herbicidal efficacy, Alopecurus myosuroides
33 | Cc1ccccc1C1=NOC(C)(COCc2c(F)cccc2Cl)C1 (stereo not drawn) [Reference E] | 0

Same assay, conditions: 125 g/ha, 4 weeks after spraying, scale 0 to 10

Row | Structure (SMILES) | Herbicidal efficacy, Alopecurus myosuroides
34 | Cc1ccccc1C1=NOC(C)(COCc2c(F)cccc2Cl)C1 (stereo not drawn) [Reference E] | 0

Same assay, conditions: 250 g/ha, 4 weeks after spraying, scale 0 to 10

Row | Structure (SMILES) | Herbicidal efficacy, Alopecurus myosuroides
35 | Cc1ccccc1C1=NOC(C)(COCc2c(F)cccc2Cl)C1 (stereo not drawn) [Reference E] | 4

Same assay, conditions: 500 g/ha, 4 weeks after spraying, scale 0 to 10

Row | Structure (SMILES) | Herbicidal efficacy, Alopecurus myosuroides
36 | Cc1ccccc1C1=NOC(C)(COCc2c(F)cccc2Cl)C1 (stereo not drawn) [Reference E] | 9

Test system: Rice
Assay: Post-emergence treatment, phytotoxicity to rice
Format: in vivo
Details: post-emergence (about 3 leaf stage), 1,000 g/ha, 4 weeks after spraying, scale 0 to 10 (0: no effects, 10: complete death)
Experimental: as §1, §2

Row | Structure (SMILES) | Phytotoxicity, Rice
37 | Cc1ccccc1C1=NOC(C)(COCc2c(F)cccc2Cl)C1 (stereo not drawn) [Reference E] | 0

Test system: Wheat
Assay: Post-emergence treatment, phytotoxicity to wheat
Format: in vivo
Details: post-emergence (about 3 leaf stage), 1,000 g/ha, 4 weeks after spraying, scale 0 to 10 (0: no effects, 10: complete death)
Experimental: as §1, §2

Row | Structure (SMILES) | Phytotoxicity, Wheat
38 | Cc1ccccc1C1=NOC(C)(COCc2c(F)cccc2Cl)C1 (stereo not drawn) [Reference E] | 0

Test system: Poa annua
Assay: Pre-emergence treatment, herbicidal efficacy on annual bluegrass
Format: in vivo
Details: 62.5 g/ha, 4 weeks after spraying, scale 0 to 10
Experimental: as §1

Row | Structure (SMILES) | Herbicidal efficacy, Poa annua
39 | Cc1ccccc1C1=NOC(C)(COCc2c(F)cccc2Cl)C1 (stereo not drawn) [Reference E] | 2

Same assay, conditions: 125 g/ha, 4 weeks after spraying, scale 0 to 10

Row | Structure (SMILES) | Herbicidal efficacy, Poa annua
40 | Cc1ccccc1C1=NOC(C)(COCc2c(F)cccc2Cl)C1 (stereo not drawn) [Reference E] | 5

Same assay, conditions: 250 g/ha, 4 weeks after spraying, scale 0 to 10

Row | Structure (SMILES) | Herbicidal efficacy, Poa annua
41 | Cc1ccccc1C1=NOC(C)(COCc2c(F)cccc2Cl)C1 (stereo not drawn) [Reference E] | 9

Same assay, conditions: 500 g/ha, 4 weeks after spraying, scale 0 to 10

Row | Structure (SMILES) | Herbicidal efficacy, Poa annua
42 | Cc1ccccc1C1=NOC(C)(COCc2c(F)cccc2Cl)C1 (stereo not drawn) [Reference E] | 10
